# Read-outs that look alike come from different tables or passages of the source. Starred links: 1 amine or outer side, 2 acyl side, 3 side chain; linkers in the order of their positions; H or OH if unused. Non-standard residues stand in square brackets, D forms with d. Residues, ends and D or L forms follow the SMILES beside them. Groups on a side chain read outwards from the residue. No end group written: not given here. *: point of attachment. C20 diacid = O=C(O)CCCCCCCCCCCCCCCCCCC(=O)*; C18 diacid = O=C(O)CCCCCCCCCCCCCCCCC(=O)*; αMePhe(2-F) = C[C@](N)(Cc1ccccc1F)C(=O)O; γGlu = O=C(O)[C@H](CCC(=O)[*:2])N[*:1]; αMe4Pal = C[C@](N)(Cc1ccncc1)C(=O)O; αMeY = C[C@](N)(Cc1ccc(O)cc1)C(=O)O; αMeF = C[C@](N)(Cc1ccccc1)C(=O)O; 4Pal = N[C@@H](Cc1ccncc1)C(=O)O; αMeL = CC(C)C[C@](C)(N)C(=O)O; αMeS = C[C@](N)(CO)C(=O)O; Orn = NCCC[C@H](N)C(=O)O; AEEA = NCCOCCOCC(=O)O; Aib = CC(C)(N)C(=O)O
# How the values were obtained:
# Type in all cases: cell-based
# [1] = biological target: human GcgR (Homo sapiens, UniProt P47871); assay: Functional cAMP activity in the presence of 1% HSA; conditions: read-out: cAMP Rel EC50, hGcgR
# [2] = biological target: hGcgR (Homo sapiens, UniProt P47871); assay: Functional cAMP activation in the presence of 0.1% casein (no HSA); conditions: read-out: Relative cAMP EC50, hGcgR;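 further: intracellular cAMP rise after 30 min at 37 °C, read by HTRF against a cAMP standard curve, scaled from buffer only (0%) to maximal control ligand response (100%)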
# [3] = biological target: T1, hGLP-1R (Homo sapiens, UniProt P43220); assay: as above; conditions: read-out: Relative cAMP EC50, hGLP-1R;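 further: intracellular cAMP rise after 30 min at 37 °C read by HTRF, normalized between buffer only (0%) and maximal control ligand (100%), four-parameter variable-slope fit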
# [4] = biological target: T2, hGIPR (Homo sapiens, UniProt P48546); assay: Functional cAMP activity in the presence of 1% HSA; conditions: read-out: cAMP Rel EC50, hGIPR
# T2 sequence (P48546 22-466): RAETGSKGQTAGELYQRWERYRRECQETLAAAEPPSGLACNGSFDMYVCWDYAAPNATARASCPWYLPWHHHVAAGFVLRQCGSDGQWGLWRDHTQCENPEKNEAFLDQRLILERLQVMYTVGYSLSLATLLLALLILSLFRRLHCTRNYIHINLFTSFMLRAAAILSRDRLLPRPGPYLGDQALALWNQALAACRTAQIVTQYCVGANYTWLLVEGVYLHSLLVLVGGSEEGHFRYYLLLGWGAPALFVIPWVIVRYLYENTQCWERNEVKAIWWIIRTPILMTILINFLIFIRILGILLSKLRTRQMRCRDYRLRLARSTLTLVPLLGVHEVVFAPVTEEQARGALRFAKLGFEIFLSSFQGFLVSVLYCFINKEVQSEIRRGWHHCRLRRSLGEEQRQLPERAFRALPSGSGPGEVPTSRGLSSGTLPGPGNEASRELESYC
# [5] = biological target: T1, hGLP-1R; assay: Functional cAMP activity in the presence of 1% HSA; conditions: read-out: cAMP Rel EC50, hGLP-1R
# [6] = biological target: T2, hGIPR; assay: Functional cAMP activation in the presence of 0.1% casein (no HSA); conditions: read-out: Relative cAMP EC50, hGIPR;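 on Relative cAMP EC50, hGIPR: intracellular cAMP rise after 30 min at 37 °C read by HTRF against a standard curve, scaled between buffer alone (0%) and top control ligand concentration (100%), four-parameter fit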;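 on Relative cAMP EC50, hGLP-1R: intracellular cAMP rise after 30 min at 37 °C read by HTRF, normalized between buffer only (0%) and maximal control ligand (100%), four-parameter variable-slope fit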
# [7] = in the presence of 0.1% casein (no HSA), geometric mean
# [8] = 0.1% casein, no HSA, geometric mean
# [9] = HEK-293 clonal cell line, 1% HSA, geometric mean of relative EC50
# [10] = in the presence of 0.1% casein (no HSA), geometric mean of relative EC50
# T1 sequence (P43220 24-463): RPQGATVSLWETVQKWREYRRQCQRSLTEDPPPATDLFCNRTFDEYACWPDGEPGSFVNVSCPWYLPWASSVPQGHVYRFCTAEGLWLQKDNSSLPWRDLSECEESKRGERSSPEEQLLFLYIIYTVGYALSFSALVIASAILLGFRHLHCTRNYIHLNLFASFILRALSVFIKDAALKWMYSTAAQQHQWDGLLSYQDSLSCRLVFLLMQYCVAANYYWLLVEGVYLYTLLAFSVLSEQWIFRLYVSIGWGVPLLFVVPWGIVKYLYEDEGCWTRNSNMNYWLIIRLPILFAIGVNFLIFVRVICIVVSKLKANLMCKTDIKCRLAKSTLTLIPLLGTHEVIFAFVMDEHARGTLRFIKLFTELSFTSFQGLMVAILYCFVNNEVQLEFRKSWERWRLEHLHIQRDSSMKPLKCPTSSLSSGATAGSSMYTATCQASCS
# Chain of hGcgR (P47871 26-477): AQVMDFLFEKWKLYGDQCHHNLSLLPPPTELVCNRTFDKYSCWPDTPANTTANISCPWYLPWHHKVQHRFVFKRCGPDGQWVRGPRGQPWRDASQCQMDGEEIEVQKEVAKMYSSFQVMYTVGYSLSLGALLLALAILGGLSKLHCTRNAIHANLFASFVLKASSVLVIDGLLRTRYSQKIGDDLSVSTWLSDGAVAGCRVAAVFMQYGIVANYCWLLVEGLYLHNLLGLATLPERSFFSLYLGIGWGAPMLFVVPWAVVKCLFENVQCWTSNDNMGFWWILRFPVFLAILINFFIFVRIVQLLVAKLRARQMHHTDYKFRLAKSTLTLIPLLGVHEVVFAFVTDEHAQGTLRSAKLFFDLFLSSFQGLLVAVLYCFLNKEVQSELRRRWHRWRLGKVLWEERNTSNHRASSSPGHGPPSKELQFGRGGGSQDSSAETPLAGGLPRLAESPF
# Chain of human GcgR (P47871 26-477): as above
Molecule,EC50 [1] [nM],EC50 [2] [nM],EC50 [3] [nM],EC50 [4] [nM],EC50 [5] [nM],EC50 [6] [nM],"EC50 [2, 7] [nM]","EC50 [3, 7] [nM]","EC50 [6, 7] [nM]",further results
Y[Aib]QGT[αMePhe(2-F)]TSD[4Pal]SI[αMeL]LD[Orn]K([AEEA-γGlu-C18 diacid])AQ[αMe4Pal][Orn]FI[dE][αMeY]LIEGGPSSGEPPPEGT[dE]-NH2 [Example 691],308,2.46,0.26,1.17,28.9,0.0117,,,,
H-Y[Aib]QGT[αMePhe(2-F)]TSD[4Pal][αMeS]I[αMeL]LD[Orn]K([γGlu-γGlu-C18 diacid])AQ[Aib][Orn]FI[dE][αMeY]LTEGGPSSGEPPPEGTEEE-NH2 [Example 598],457,8.79,0.886,3.49,47.3,0.0927,,,,
H-Y[Aib]QGTFTSD[4Pal]S[Orn][αMeL]LD[Orn]K([γGlu-γGlu-C18 diacid])AQ[αMe4Pal]EFIE[αMeY]LLEGGPSSGAPPPSGSEE-NH2 [Example 976],848,,,82.7,2860,,8.75,21.8,0.441,
H-Y[Aib]QGT[αMePhe(2-F)]TSD[4Pal][αMeS]I[αMeL]LD[Orn]K([AEEA-γGlu-C18 diacid])AQ[αMe4Pal]EFI[dE][αMeY]LIEGGPSSGAPPPSGGGEE-NH2 [Example 1214],210,,,0.771,50,,,,,"EC50 [2, 8]: 1.85 nM; EC50 [3, 8]: 0.55 nM; EC50 [6, 8]: 0.00851 nM"
H-Y[Aib]QGT[αMePhe(2-F)]TSD[4Pal]SI[αMeL]LDKK([γGlu-γGlu-C18 diacid])AQ[Aib]AFIEYLQEGGPSSGEPPPSGSEE-NH2 [Example 634],,,,,,,,,,"EC50 [1, 9]: 979 nM; EC50 [2, 10]: 6.49 nM; EC50 [3, 10]: 0.403 nM; EC50 [4, 9]: 1.48 nM; EC50 [5, 9]: 34.9 nM; EC50 [6, 10]: 0.0195 nM"
H-Y[Aib]QGT[αMeF]TSD[4Pal][αMeS]I[αMeL]LD[Orn]K([AEEA-γGlu-C18 diacid])AQ[αMe4Pal]EFI[dE][αMeY]LIEGGPSSGAPPPSGSE-NH2 [Example 1166],427,,,1.1,65.6,,2.94,0.478,0.00999,
Y[Aib]QGT[αMePhe(2-F)]TSD[4Pal][αMeS]ILLD[Orn]K([γGlu-γGlu-C18 diacid])AQ[Aib][Orn]FI[dE]YLIEGGPSSGEPPPSETE-NH2 [Example 555],,,,,,,,,,"EC50 [1, 9]: 274 nM; EC50 [2, 10]: 3.56 nM; EC50 [3, 10]: 0.445 nM; EC50 [4, 9]: 5.31 nM; EC50 [5, 9]: 42 nM; EC50 [6, 10]: 0.0601 nM"
H-Y[Aib]QGT[αMePhe(2-F)]TSD[4Pal]SI[αMeL]LD[Orn]K([γGlu-γGlu-C18 diacid])AQ[αMe4Pal]EFI[dE][αMeY]LQEGGPSSGAPPPSGS-NH2 [Example 647],1210,18.8,0.872,0.691,36.1,0.0177,,,,
H-Y[Aib]QGTFTSDFS[Orn][αMeL]LDKK([AEEA-γGlu-C18 diacid])AQ[Aib]AFIEWLLEGGESSGEPPPSGE-NH2 [Example 123],1740,,,94.6,1500,,4.55,4.82,0.531,

# The next lines start with results.
EC50 [1] [nM],EC50 [2] [nM],EC50 [3] [nM],EC50 [4] [nM],EC50 [5] [nM],EC50 [6] [nM],"EC50 [2, 7] [nM]","EC50 [3, 7] [nM]","EC50 [6, 7] [nM]",Molecule,further results
4000,,,15,177,,3.52,0.586,0.0939,H-Y[Aib]QGT[αMePhe(2-F)]TSDYSKLLDKIAQK([AEEA-γGlu-C20 diacid])[Orn]FIEWLIEGGPSSGEPPPSEG-NH2 [Example 310],
1030,5.66,0.725,44.9,86.6,0.123,,,,CC[C@H](C)[C@H](NC(=O)[C@H](Cc1ccccc1)NC(=O)[C@H](CCCN)NC(=O)C(C)(C)NC(=O)[C@H](CCC(N)=O)NC(=O)[C@H](C)NC(=O)[C@H](CCCCNC(=O)COCCOCCNC(=O)COCCOCCNC(=O)CC[C@H](NC(=O)CCCCCCCCCCCCCCCCC(=O)O)C(=O)O)NC(=O)[C@H](CCCN)NC(=O)[C@H](CC(=O)O)NC(=O)[C@H](CC(C)C)NC(=O)[C@](C)(CC(C)C)NC(=O)[C@@H](NC(=O)[C@](C)(CO)NC(=O)[C@H](Cc1ccc(O)cc1)NC(=O)[C@H](CC(=O)O)NC(=O)[C@H](CO)NC(=O)[C@@H](NC(=O)[C@](C)(Cc1ccccc1F)NC(=O)[C@@H](NC(=O)CNC(=O)[C@H](CCC(N)=O)NC(=O)C(C)(C)NC(=O)[C@@H](N)Cc1ccc(O)cc1)[C@@H](C)O)[C@@H](C)O)[C@@H](C)CC)C(=O)N[C@H](CCC(=O)O)C(=O)N[C@@](C)(Cc1ccc(O)cc1)C(=O)N[C@@H](CC(C)C)C(=O)N[C@@H](CCC(=O)O)C(=O)N[C@@H](CCC(=O)O)C(=O)NCC(=O)NCC(=O)N1CCC[C@H]1C(=O)N[C@@H](CO)C(=O)N[C@@H](CO)C(=O)NCC(=O)N[C@@H](CCC(=O)O)C(=O)N1CCC[C@H]1C(=O)N1CCC[C@H]1C(=O)N1CCC[C@H]1C(=O)N[C@@H](CCC(=O)O)C(N)=O [Example 402] (H-Y[Aib]QGT[αMePhe(2-F)]TSDY[αMeS]I[αMeL]LD[Orn]K([AEEA-AEEA-γGlu-C18 diacid])AQ[Aib][Orn]FI[dE][αMeY]LEEGGPSSGEPPPE-NH2; N-terminus assumed),
254,,,0.764,59.1,,2.31,0.604,0.00943,H-Y[Aib]QGT[αMeF]TSD[4Pal][αMeS]I[αMeL]LD[Orn]K([γGlu-γGlu-C18 diacid])AQ[αMe4Pal]EFI[dE][αMeY]LIEGGPSSGEPPPSGSE-NH2 [Example 1173],
384,,,1.28,57.5,,2.04,0.408,0.0124,H-Y[Aib]QGT[αMePhe(2-F)]TSD[4Pal][αMeS]I[αMeL]LD[Orn]K([AEEA-γGlu-C18 diacid])AQ[αMe4Pal]EFI[dE][αMeY]LVEGGPSSGEPPPESE-NH2 [Example 1157],
275,4.04,0.341,0.967,24.8,0.0164,,,,Y[Aib]QGT[αMePhe(2-F)]TSD[4Pal][αMeS]I[αMeL]LD[Orn]K([γGlu-γGlu-C18 diacid])AQ[Aib][Orn]FI[dE]YLIEGGPSSGEPPPSGTE-NH2 [Example 521],
567,,,54.7,801,,2.92,6.14,0.344,Y[Aib]QGTFTSDFS[Orn][αMeL]LDKK([AEEA-γGlu-C18 diacid])AQ[Aib]AFIEWLLEGGHSSGEPPPSGE-NH2 [Example 124],
348,5.84,0.207,5.65,13.3,0.0466,,,,CC[C@H](C)[C@H](NC(=O)[C@H](Cc1ccccc1)NC(=O)[C@H](C)NC(=O)C(C)(C)NC(=O)[C@H](CCC(N)=O)NC(=O)[C@H](C)NC(=O)[C@H](CCCCNC(=O)COCCOCCNC(=O)CC[C@H](NC(=O)CCCCCCCCCCCCCCCCC(=O)O)C(=O)O)NC(=O)[C@H](CCCN)NC(=O)[C@H](CC(=O)O)NC(=O)[C@H](CC(C)C)NC(=O)[C@](C)(CC(C)C)NC(=O)[C@@H](NC(=O)[C@](C)(CO)NC(=O)[C@H](Cc1ccncc1)NC(=O)[C@H](CC(=O)O)NC(=O)[C@H](CO)NC(=O)[C@@H](NC(=O)[C@](C)(Cc1ccccc1F)NC(=O)[C@@H](NC(=O)CNC(=O)[C@H](CCC(N)=O)NC(=O)C(C)(C)NC(=O)[C@@H](N)Cc1c[nH]cn1)[C@@H](C)O)[C@@H](C)O)[C@@H](C)CC)C(=O)N[C@H](CCC(=O)O)C(=O)N[C@@H](Cc1ccc(O)cc1)C(=O)N[C@@H](CC(C)C)C(=O)N[C@@H](CC(C)C)C(=O)N[C@@H](CCC(=O)O)C(=O)NCC(=O)NCC(=O)N1CCC[C@H]1C(=O)N[C@@H](CO)C(=O)N[C@@H](CO)C(=O)NCC(=O)N[C@@H](CCC(=O)O)C(=O)N1CCC[C@H]1C(=O)N1CCC[C@H]1C(=O)N1CCC[C@H]1C(=O)N[C@@H](CCC(=O)O)C(N)=O [Example 466] (H-H[Aib]QGT[αMePhe(2-F)]TSD[4Pal][αMeS]I[αMeL]LD[Orn]K([AEEA-γGlu-C18 diacid])AQ[Aib]AFI[dE]YLLEGGPSSGEPPPE-NH2; N-terminus assumed),
